Values after ≈ are worked out from the molar mass of the structure shown.
Tests used:
Format in all cases: functional
[1] = tested on: Pseudomonas aeruginosa; test: Antibacterial activity against wild-type Pseudomonas aeruginosa PAO1 after 24 hrs by CLSI broth microdilution method; conditions: PAO1, 24 h
[2] = tested on: Staphylococcus aureus; test: Antibacterial activity against wild-type Staphylococcus aureus NCTC 8325 after 24 hrs by CLSI broth microdilution method; conditions: NCTC 8325, 24 h
[3] = tested on: Escherichia coli; test: Antibacterial activity against Escherichia coli MG1655 after 24 hrs by CLSI broth microdilution method; conditions: MG1655, 24 h
[4] = tested on: Escherichia coli; test: Antibacterial activity against Escherichia coli MG1655 harboring lepB P84L mutant after 24 hrs by CLSI broth microdilution method; conditions: MG1655, 24 h
[5] = tested on: Staphylococcus aureus; test: Antibacterial activity against Staphylococcus aureus NCTC 8325 harboring lepB P29S mutant after 24 hrs by CLSI broth microdilution method; conditions: NCTC 8325, 24 h
[6] = tested on: Staphylococcus epidermidis; test: Antibacterial activity against wild-type Staphylococcus epidermidis RP62A after 24 hrs by CLSI broth microdilution method
[7] = tested on: Staphylococcus epidermidis; test: Antibacterial activity against Staphylococcus epidermidis RP62A harboring spsB S29P mutant after 24 hrs by CLSI broth microdilution method
[8] = tested on: Pseudomonas aeruginosa; test: Antibacterial activity against Pseudomonas aeruginosa PAO1 harboring lepB P84L mutant after 24 hrs by CLSI broth microdilution method; conditions: PAO1, 24 h
[9] = tested on: Staphylococcus aureus; test: Antibacterial activity against methicillin-resistant Staphylococcus aureus isolate USA300

Structure (SMILES) | MIC [1] [µg/mL] | MIC [2] [µg/mL] | MIC [3] [µg/mL] | MIC [4] [µg/mL] | MIC [5] [µg/mL] | MIC [6] [µg/mL] | MIC [7] [µg/mL] | MIC [8] [µg/mL] | MIC [9] [µg/mL]
CCCCCCCCCCCCCCCC(=O)N[C@@H](CO)C(=O)N[C@@H](C)C(=O)NCC(=O)N(C)[C@@H]1C(=O)N[C@@H](C)C(=O)N[C@H](C(=O)O)Cc2ccc(O)c(c2)-c2cc1ccc2O | > 64 | > 64 | > 64 |  |  |  |  |  | 
CCc1ccc(-c2ccc(C(=O)N(C)[C@H](CO)C(=O)N[C@H](C)C(=O)NCC(=O)N(C)[C@@H]3C(=O)N[C@@H](C)C(=O)N[C@H](C(=O)O)Cc4ccc(O)c(c4)-c4cc3ccc4O)cc2)cc1 | > 64 | > 64 | > 64 | 16 (≈ 18.8 µM) | 64 (≈ 75.2 µM) | 8 (≈ 9.4 µM) | > 64 |  | 
C[C@@H]1NC(=O)[C@@H](N(C)C(=O)CNC(=O)[C@@H](C)NC(=O)[C@@H](CO)N(C)C(=O)c2ccc(-c3ccccc3)cc2)c2ccc(O)c(c2)-c2cc(ccc2O)C[C@@H](C(=O)O)NC1=O | > 64 | > 64 | > 64 |  |  | 64 (≈ 77.8 µM) | > 64 |  | 
CCCCCCCCCCCCCCC(C)C(=O)N[C@@H](C)C(=O)NCC(=O)N(C)[C@@H]1C(=O)N[C@@H](C)C(=O)N[C@H](C(=O)O)Cc2ccc(O)c(c2)-c2cc1ccc2O (mixture of isomers) | > 64 | > 64 | > 64 |  |  | 8 | > 64 |  | 
CCCCCCCCCCCCCCCC(=O)N(C)[C@@H](CO)C(=O)NCCC(C)C(=O)NCC(=O)N(C)[C@@H]1C(=O)N[C@@H](C)C(=O)N[C@H](C(=O)O)Cc2ccc(O)c(c2)-c2cc1ccc2O (mixture of isomers) | > 64 | > 64 | > 64 |  | 8 | 8 | 8 |  | 
CCCCCCCCCC(=O)N(C)[C@H](CO)C(=O)N[C@H](C)C(=O)NCC(=O)N(C)[C@@H]1C(=O)N[C@@H](C)C(=O)N[C@H](C(=O)O)Cc2ccc(O)c(c2)-c2cc1ccc2O | > 64 | > 64 | > 64 |  |  |  |  |  | 
CCCCCCCCCCCCCCCC(=O)N[C@@H](CO)C(=O)N(C)[C@@H](C)C(=O)N(C)CC(=O)N(C)[C@@H]1C(=O)N[C@@H](C)C(=O)N[C@H](C(=O)O)Cc2ccc(O)c(c2)-c2cc1ccc2O | > 64 | > 64 | > 64 |  |  | > 64 |  |  | 
CCCCCCc1ccc(-c2ccc(C(=O)N(C)[C@H](CO)C(=O)N[C@H](C)C(=O)NCC(=O)N(C)[C@@H]3C(=O)N[C@@H](C)C(=O)N[C@H](C(=O)O)Cc4ccc(O)c(c4)-c4cc3ccc4O)cc2)cc1 | > 64 | 64 (≈ 70.6 µM) | > 64 | 1 (≈ 1.1 µM) | 8 (≈ 8.82 µM) | 0.5 (≈ 0.551 µM) | 32 (≈ 35.3 µM) |  | 
CCCCCCCCCCCCCCCC(=O)N1C[C@@H](O)C[C@H]1C(=O)N[C@@H](C)C(=O)NCC(=O)N(C)[C@@H]1C(=O)N[C@@H](C)C(=O)N[C@H](C(=O)O)Cc2ccc(O)c(c2)-c2cc1ccc2O | > 64 | > 64 | > 64 |  | 4 (≈ 4.48 µM) | 4 (≈ 4.48 µM) | 8 (≈ 8.96 µM) |  | 
CCCCCCCCCCc1ccc(C(=O)N(C)[C@H](CO)C(=O)N[C@H](C)C(=O)NCC(=O)N(C)[C@@H]2C(=O)N[C@@H](C)C(=O)N[C@H](C(=O)O)Cc3ccc(O)c(c3)-c3cc2ccc3O)cc1 | > 64 | 32 (≈ 36.1 µM) | > 64 | 2 (≈ 2.25 µM) | 4 (≈ 4.51 µM) | 0.5 (≈ 0.564 µM) | 16 (≈ 18 µM) | 16 (≈ 18 µM) | 
CCCCCCCCCCCCCCCC(=O)N(C)[C@@H](CO)CC(=O)N[C@@H](C)C(=O)NCC(=O)N(C)[C@@H]1C(=O)N[C@@H](C)C(=O)N[C@H](C(=O)O)Cc2ccc(O)c(c2)-c2cc1ccc2O | > 64 | 64 (≈ 71.5 µM) | > 64 |  | 16 (≈ 17.9 µM) | 4 (≈ 4.47 µM) | 8 (≈ 8.94 µM) |  | 
CCCCCCCCc1ccc(-c2ccc(C(=O)N(C)[C@H](CO)C(=O)N[C@H](C)C(=O)NCC(=O)N(C)[C@@H]3C(=O)N[C@@H](C)C(=O)N[C@H](C(=O)O)Cc4ccc(O)c(c4)-c4cc3ccc4O)cc2)cc1 | > 64 | 16 (≈ 17.1 µM) | > 64 | 1 (≈ 1.07 µM) | 8 (≈ 8.56 µM) | 1 (≈ 1.07 µM) | 16 (≈ 17.1 µM) |  | 
CC(C)CCCCCCCCC(=O)N(C)[C@H](CO)C(=O)N[C@H](C)C(=O)NCC(=O)N(C)[C@@H]1C(=O)N[C@@H](C)C(=O)N[C@H](C(=O)O)Cc2ccc(O)c(c2)-c2cc1ccc2O [ARYLOMYCIN A2] |  |  |  |  |  |  |  |  | 16 (≈ 19.4 µM)
CCCCCCCCCCCCCCCC(=O)N(C)[C@H](CO)C(=O)N[C@H](C)C(=O)NCC(=O)N(C)[C@@H]1C(=O)N[C@@H](C)C(=O)N[C@H](C(=O)O)Cc2ccc(O)c(c2)-c2cc1ccc2O [ARYLOMYCIN C16] | > 64 | > 64 | > 64 |  |  | 0.5 (≈ 0.567 µM) |  | 8 (≈ 9.08 µM) | 16 (≈ 18.2 µM)
CCCCc1ccc(-c2ccc(C(=O)N(C)[C@H](CO)C(=O)N[C@H](C)C(=O)NCC(=O)N(C)[C@@H]3C(=O)N[C@@H](C)C(=O)N[C@H](C(=O)O)Cc4ccc(O)c(c4)-c4cc3ccc4O)cc2)cc1 | > 64 | > 64 | > 64 | 4 (≈ 4.55 µM) | 16 (≈ 18.2 µM) | 1 (≈ 1.14 µM) | > 64 |  | 
CCCCCCCCCCCCCCCCCC(=O)N(C)[C@H](CO)C(=O)N[C@H](C)C(=O)NCC(=O)N(C)[C@@H]1C(=O)N[C@@H](C)C(=O)N[C@H](C(=O)O)Cc2ccc(O)c(c2)-c2cc1ccc2O | > 64 | > 64 | > 64 |  |  |  |  |  | 
CCCCCCc1ccc(C(=O)N(C)[C@H](CO)C(=O)N[C@H](C)C(=O)NCC(=O)N(C)[C@@H]2C(=O)N[C@@H](C)C(=O)N[C@H](C(=O)O)Cc3ccc(O)c(c3)-c3cc2ccc3O)cc1 | > 64 | > 64 | > 64 | 32 (≈ 38.5 µM) | 64 (≈ 77 µM) | 8 (≈ 9.63 µM) | > 64 |  | 
CCCCCCCCCCCCCCCC(=O)N(C)[C@@H](CO)CCC(=O)N[C@@H](C)C(=O)NCC(=O)N(C)[C@@H]1C(=O)N[C@@H](C)C(=O)N[C@H](C(=O)O)Cc2ccc(O)c(c2)-c2cc1ccc2O | > 64 | 16 (≈ 17.6 µM) | > 64 |  | 4 (≈ 4.4 µM) | 8 (≈ 8.8 µM) | 16 (≈ 17.6 µM) |  | 
C[C@@H]1NC(=O)[C@@H](N(C)C(=O)CNC(=O)[C@@H](C)NC(=O)[C@@H](CO)N(C)C(=O)Cc2ccc(-c3ccccc3)cc2)c2ccc(O)c(c2)-c2cc(ccc2O)C[C@@H](C(=O)O)NC1=O | > 64 | > 64 | > 64 |  |  | 32 (≈ 38.2 µM) | > 64 |  | 
CCCCCCCCCCCCCCCC(=O)N(C)[C@@H](CO)C(=O)NCC(C)C(=O)NCC(=O)N(C)[C@@H]1C(=O)N[C@@H](C)C(=O)N[C@H](C(=O)O)Cc2ccc(O)c(c2)-c2cc1ccc2O (mixture of isomers) | > 64 | > 64 | > 64 | 8 |  | 8 | 16 | 16 | 
C[C@@H]1NC(=O)[C@@H](N(C)C(=O)CNC(=O)[C@@H](C)NC(=O)[C@@H](CO)N(C)C(=O)Cc2ccc3ccccc3c2)c2ccc(O)c(c2)-c2cc(ccc2O)C[C@@H](C(=O)O)NC1=O | > 64 | > 64 | > 64 |  |  | > 64 |  |  | 
CCCCCCCCCCCC(=O)N(C)[C@H](CO)C(=O)N[C@H](C)C(=O)NCC(=O)N(C)[C@@H]1C(=O)N[C@@H](C)C(=O)N[C@H](C(=O)O)Cc2ccc(O)c(c2)-c2cc1ccc2O | > 64 | > 64 | > 64 |  |  |  | > 64 |  | 
CCCCCCCC(=O)N(C)[C@H](CO)C(=O)N[C@H](C)C(=O)NCC(=O)N(C)[C@@H]1C(=O)N[C@@H](C)C(=O)N[C@H](C(=O)O)Cc2ccc(O)c(c2)-c2cc1ccc2O | > 64 | > 64 | > 64 |  |  |  |  |  | 
CCCCCCCCc1ccc(C(=O)N(C)[C@H](CO)C(=O)N[C@H](C)C(=O)NCC(=O)N(C)[C@@H]2C(=O)N[C@@H](C)C(=O)N[C@H](C(=O)O)Cc3ccc(O)c(c3)-c3cc2ccc3O)cc1 | > 64 | > 64 | > 64 | 8 (≈ 9.31 µM) | 8 (≈ 9.31 µM) | 1 (≈ 1.16 µM) | > 64 | 64 (≈ 74.5 µM) | 
